# Measured values published in PubChem BioAssay AID1417 (Emory University Molecular Libraries Screening Center, 2008).
# Target: Induced myeloid leukemia cell differentiation protein Mcl-1 (Homo sapiens) (UniProt Q07820)
# Test: Mcl-1 Noxa peptide disruption concentration-response – biochemical, TR-FRET, dose response (AID 1417)
# Details: Mcl-1/Noxa peptide interaction, cell-free TR-FRET (terbium/rhodamine), 2 h; measured here: absolute IC50
# Induced myeloid leukemia cell differentiation protein Mcl-1 (Homo sapiens), sequence (Q07820 whole entry, looked up): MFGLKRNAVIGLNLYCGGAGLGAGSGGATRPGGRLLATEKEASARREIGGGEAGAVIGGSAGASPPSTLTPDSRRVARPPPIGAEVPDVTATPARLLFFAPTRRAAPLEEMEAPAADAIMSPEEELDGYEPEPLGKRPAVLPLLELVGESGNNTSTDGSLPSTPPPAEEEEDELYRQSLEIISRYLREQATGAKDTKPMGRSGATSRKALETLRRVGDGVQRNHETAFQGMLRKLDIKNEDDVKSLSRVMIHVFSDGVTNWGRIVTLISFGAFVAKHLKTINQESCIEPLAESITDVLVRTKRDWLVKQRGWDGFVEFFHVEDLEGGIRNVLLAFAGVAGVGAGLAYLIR
row,Compound,IC50 [µM]
1,COc1ccccc1N1C(=O)C2ON(c3ccccc3)C(c3ccc(N(C)C)cc3)C2C1=O (stereo not drawn),> 54
2,O=C(CCN1C(=O)S/C(=C\c2ccccc2)C1=O)Nc1ccc(S(=O)(=O)Nc2nccs2)cc1,7.65
3,Cc1cc(NC(=O)Cc2cccs2)no1,< 0.4
4,CCOc1ccc(C(Nc2cccnc2)c2cc(Cl)c3cccnc3c2O)cc1 (stereo not drawn),3.25
5,O=C1NC(=S)/C(=C\c2ccc(-c3ccccc3Cl)o2)S1,2.13
6,O=C(O)c1ccc2nc(-c3ccco3)c(-c3ccco3)nc2c1,1.63
7,CCc1ccc2nc3sc(C(=O)Nc4nnc(CC)s4)c(N)c3cc2c1,> 54
8,Cc1cc(C)c(S(=O)(=O)Nc2cc(SCC(=O)O)c(O)c3ccccc23)cc1C,< 0.4
9,N[C@@H](Cc1cc(I)c(Oc2ccc(O)c(I)c2)c(I)c1)C(=O)O,< 0.4
10,O=[N+]([O-])c1ccc(-c2c[nH]c(=S)[nH]2)cc1,0.8
11,O=C(N=Nc1c(O)[nH]c2ccc([N+](=O)[O-])cc12)c1cc(-c2ccccc2Cl)nc2ccccc12,< 0.4
12,O=C(CSc1nc2ccccc2s1)Nc1cc(S(=O)(=O)N2CCOCC2)ccc1O,0.722
13,Cc1ccc(/C=C2/SC(=O)NC2=S)o1,4.11
14,Nc1cc2nc[nH]c2cc1N,52.8
15,CC(=O)c1sc2nc(-c3cccs3)ccc2c1N,> 54
16,COc1cc(C2C3=C(Nc4nc(N)[nH]c(=O)c42)c2ccccc2C3=O)ccc1O (stereo not drawn),2.28
17,CC1CCN(C(c2ccc(N(C)C)cc2)c2nnnn2C(C)(C)C)CC1 (stereo not drawn),12.5
18,O=C(/C=C/c1ccc(O)c(O)c1)O[C@H](Cc1ccc(O)c(O)c1)C(=O)O,< 0.4
19,COc1ccc(Cc2nnc(NC(=O)Cc3cccs3)s2)cc1OC,1.05
20,Nc1ccc(-c2nc3cc([N+](=O)[O-])ccc3o2)cc1,7.16
21,CN(C)c1ccc(NC(=O)/C=C/c2c(Cl)cccc2Cl)cc1,> 54
22,O=C(Nc1ccc(N2CCOCC2)cc1)Nc1ccc(Cl)c(Cl)c1,> 54
23,O=C1OCC2OC(O)C(O)C(O)C2OC(=O)c2cc(O)c(O)c(O)c2-c2c(O)c(O)c3oc(=O)c4c(c(O)c(O)c5oc(=O)c2c3c54)-c2c1cc(O)c(O)c2O (stereo not drawn),< 0.4
24,COc1ccc(CCNC(=O)COC(=O)Cc2cccc3ccccc23)cc1,> 54
25,C=CCc1c(C)nc(SCCC)[nH]c1=O,> 54
26,Cc1cc(C(=O)N/N=C/c2ccc(O)c([N+](=O)[O-])c2)c(C)n1-c1ccc(F)cc1,2.33
27,COc1ccc(-c2csc(/C(C#N)=C\c3ccc(O)c([N+](=O)[O-])c3)n2)cc1OC,4.75

row,Compound,IC50 [µM]
1,O=C(NCc1ccco1)c1c2c(nc3ccccc13)CCC2,3.96
2,Oc1ccc(/C=N/Nc2ccnc3cc(Cl)ccc23)cc1O,1.99
3,Cc1cccc(N=C2NC(=O)/C(=C/C=C/c3ccco3)S2)c1C,4.15
4,COc1ccccc1N1C(=O)C(Cl)=C(Nc2ccccc2O)C1=O,> 54
5,Cc1ccc(/C=C/C(=O)Nc2ccc([N+](=O)[O-])c(NC(=O)/C=C/c3ccc(C)o3)c2)o1,< 0.4
6,O=[N+]([O-])c1ccc2[nH]c(O)c(N=NC(=S)Nc3cccnc3)c2c1,8.86
7,O=C(/C=C\c1ccco1)c1ccc(NC(=O)c2ccco2)cc1,3.3
8,CCOC(=O)c1c(C)oc2c1c(C(c1cccnc1)N1CCOCC1)c(O)c1ccccc12 (stereo not drawn),< 0.4
9,COCCNC(=O)Nc1ccc2nc(-c3ccco3)c(-c3ccco3)nc2c1,< 0.4
10,COc1cc(C2Nc3cccc4cccc(c34)N2)cc(OC)c1OC(C)=O,2.43
11,Cc1nn(Cc2ccc(F)cc2)c2sc(C(=O)Nc3ccc(N4CCOCC4)cc3N3CCOCC3)cc12,> 54
12,COc1ccc(N2CCC(CNC(=O)Nc3cccc(OC)c3)C2)cc1 (stereo not drawn),> 54
13,COc1ccc(O)c(C(=O)c2cc(SCC(=O)O)c3nc4sc5c(c4c(=O)n3c2)CCCC5)c1,< 0.4
14,CCc1ccc(-n2cccc2/C=C2/C(=N)N3C(=NC2=O)SN=C3S(C)(=O)=O)cc1,4.43
15,O=C(O)CC(CCc1ccccc1)OC1OC(CO)C(O)C(O)C1O (stereo not drawn),< 0.4
16,COc1ccc(S(=O)(=O)Nc2cc(Sc3ncn[nH]3)c(O)c3ccccc23)cc1,< 0.4
17,Cc1nc(N)sc1-c1csc(Nc2ncccn2)n1,3.98
18,CCNc1ccc(Br)cc(C(=O)/C=C/c2ccc3c(c2)OCO3)c1=O,0.499
19,CCOC(=O)c1c(CSc2ccc(C)cc2)n(C)c2cc(Br)c(O)c(CN(C)C)c12,3.33
20,CCN(CC)C(=O)COC(=O)c1cc(-c2ccco2)nc2ccccc12,< 0.4
21,CCN(CC)c1ccc(NC2=C(Cl)C(=O)c3ccccc3C2=O)cc1,< 0.4
22,Cc1cc(N/N=C/c2ccc(O)c(C)c2O)nc(-c2ccccc2O)n1,3.66
23,CCn1c(SCc2nc3sc(C(=O)O)c(C)c3c(=O)[nH]2)nc2ccccc21,3.32
24,Cc1ccc(C(C)C)c(OCc2ccc(C(=O)N/N=C/c3ccc(O)cc3O)cc2)c1,13.3
25,CC(=O)Nc1ccc(C(=O)Nc2cccc(-c3cnc4ccccc4n3)c2)cc1,> 54
26,CC(/C=C1\SC(=S)N(NS(=O)(=O)c2ccccc2)C1=O)=C\c1ccccc1,17.9
